{
  "source": "paper PMC3994577",
  "about": "(BMC Infectious Diseases, 2014)",
  "key": {"[1]": {"settings": "single oral dose, co-administration of a high fat meal; cited from earlier work"}, "[2]": {"settings": "cited from earlier work"}, "[3]": {"assay": "Early RBV plasma exposure (AUC0-4h) after a 600 mg first dose of RBV", "assay_type": "in vivo, human (patients with chronic hepatitis C)", "settings": "for AUC(0-t): human, plasma, oral, 600 mg", "method": "Patients were divided into two groups according to their HIV status. […] All patients gave their informed consent before they entered the study.\nThe plasma AUC was determined for each patient before the antiviral treatment or at the first day.\nResults of AUC and normalized AUC were analyzed according to the two groups defined by the HIV status.\nAll quantitative variables were expressed as median and range. Comparisons of data were made using the non-parametric Mann–Whitney test. Statistical analysis was performed using the Statistica® software package (StatSoft Inc). […] A p value below 0.05 was considered as statistically significant."}},
  "note": "Where two headings read alike, the source gives them in different places.",
  "data": [
    {"smiles": "NC(=O)c1ncn([C@@H]2O[C@H](CO)[C@@H](O)[C@H]2O)n1", "note": "[RBV, ribavirin]", "values": [
      {"measurement": "AUCtf (from time zero to the time of the final quantifiable sample)", "setting": "[1]", "value": "increased"},
      {"measurement": "Cmax", "setting": "[1]", "value": "increased"},
      {"measurement": "patients with AUC0-4h below the 1755 μg.h/L threshold", "setting": "[2]; historical study, monoinfected HCV genotype 1 patients", "value": 58, "unit": "%"},
      {"measurement": "threshold for RBV plasma AUC from 0 to 4 h post-dose discriminating SVR from non-response", "setting": "[2]; single dose of 600 mg, HCV monoinfected patients", "value": 1755, "unit": "µg·h/L"},
      {"measurement": "Patients with AUC0-4h <1755", "setting": "[3]; HCV monoinfected patients (n = 63), threshold 1755 μg.h/L", "value": 32, "unit": "%"},
      {"measurement": "patients with AUC0-4h above the threshold of 1755 μg.h/L", "setting": "[3]; HIV-HCV coinfected patients", "value": 39, "unit": "%"},
      {"measurement": "AUC(0-t)", "setting": "[3]; HCV monoinfected patients (n = 63), single 600 mg RBV dose, median (range), read-out: AUC0-4h", "value": 2030, "unit": "ng·h/mL"},
      {"measurement": "AUC(0-t)", "setting": "[3]; HCV monoinfected, HCV treatment naive patients, read-out: median AUC0-4h", "value": 2430, "unit": "ng·h/mL"},
      {"measurement": "AUC(0-t)", "setting": "[3]; HCV monoinfected, non-responders, read-out: median AUC0-4h", "value": 1870, "unit": "ng·h/mL"},
      {"measurement": "AUC(0-t)", "setting": "[3]; HCV monoinfected, relapsers, read-out: median AUC0-4h", "value": 2020, "unit": "ng·h/mL"},
      {"measurement": "AUC(0-t)", "setting": "[3]; HIV-HCV coinfected patients (n = 23), single 600 mg RBV dose, median (range), read-out: AUC0-4h", "value": 1470, "unit": "ng·h/mL"},
      {"measurement": "AUC(0-t)", "setting": "[3]; HIV-HCV coinfected patients with CD4 < 500/mm^3, median (range), read-out: AUC0-4h", "value": 1270, "unit": "ng·h/mL"},
      {"measurement": "AUC(0-t)", "setting": "[3]; HIV-HCV coinfected patients with CD4 ≥ 500/mm^3, median (range), read-out: AUC0-4h", "value": 1840, "unit": "ng·h/mL"},
      {"measurement": "AUC(0-t)", "setting": "[3]; RBV-AUC 0-4h (median), HCV monoinfected patients, abstract", "value": 2030, "unit": "ng·h/mL"},
      {"measurement": "AUC(0-t)", "setting": "[3]; RBV-AUC 0-4h (median), HIV-HCV coinfected patients, abstract", "value": 1470, "unit": "ng·h/mL"},
      {"measurement": "AUC(0-t)", "setting": "[3]; all three HIV-HCV coinfected patients with detectable HIV RNA, read-out: AUC0-4h", "value": "< 1760", "unit": "ng·h/mL"},
      {"measurement": "Men with AUC0-4h <1755", "setting": "[3]; male HCV monoinfected patients", "value": 43, "unit": "%"},
      {"measurement": "Men with AUC0-4h <1755", "setting": "[3]; male HIV-HCV coinfected patients", "value": 65, "unit": "%"},
      {"measurement": "AUC(0-t)", "setting": "[3]; male, male HCV monoinfected patients, single 600 mg dose, median (range), read-out: Men AUC0-4h", "value": 1880, "unit": "ng·h/mL"},
      {"measurement": "AUC(0-t)", "setting": "[3]; male, male HIV-HCV coinfected patients, single 600 mg dose, median (range), read-out: Men AUC0-4h", "value": 1410, "unit": "ng·h/mL"}
    ]}
  ]
}
